Results as given in patent US5844000A, “Propenone oxime ethers and pharmaceutical compositions containing them” (Sanofi, priority 1997, dated 1998).
Entries after “also recorded” stand apart in the source; their conditions may differ.

Tests used:
[1] = Biotransformation: excreted radioactivity (urine and feces) as SR 46349 and metabolites in humans; type: in vivo, human; conditions: for percentage of excreted radioactivity: urine and feces, excreted (recovered) radioactivity
Method: Excretion-balance, plasma and blood pharmacokinetics of radioactivity, and clinical safety/tolerance were reported.
The capsule was dropped directly in the mouth and swallowed with 150 mL of tap water at about 8:00 AM. Ingestion of the capsule was verified by inspection of the oral cavity of each subject.
A representative pool of urine was prepared for each subject by mixing aliquots from each collection interval in proportion to the percent of radioactivity present in each collection interval.
A representative pool of fecal homogenate was prepared for each subject by mixing aliquots from each collection interval in proportion to the percent of radioactivity present in each collection interval.
(§1) Metabolite quantitation was conducted with an HP1090 HPLC system (Hewlett Packard, Wilmington, Del. HPLC eluant was fraction collected (0.33 mL/fraction using a FOXY™ Model 200 fraction collector; Isco, Lincoln, Nebr.). Fractions were mixed with 5 mL of Biofluor cocktail and then counted using a Tri-Carb 2700TR liquid scintillation counter (Packard, Meriden, Conn.).
Sample extraction and HPLC column recoveries were calculated using measured radioactivity in samples, sample extracts and HPLC eluants. Recoveries of 100% were based on the expected amount of radioactivity in a sample prior to extraction or HPLC analysis.
Urinary and fecal metabolites are expressed as a percentage of the radioactivity in each matrix and as a percentage of excreted (recovered) radioactivity. Values were corrected for total experimental recoveries.

5-HT2 = conditions: result in words; U.S. Pat. No. 5,166,416; cited from earlier work
[2] = Plasma metabolite profiling in humans; type: in vivo, human; conditions: result in words; time points up to 48 hr
Method: (§2) The objective of this study was to quantitate the biotransformation of ^14 C-SR 46349B in humans. Six healthy male volunteers were treated orally with a single 30 mg dose of ^14 C-SR 46349B (corresponding to 35.4 mg of the salified compound), labeled on the C-1 position of the propenyl chain with ^14 C (1.375 MBq). Excretion-balance, plasma and blood pharmacokinetics of radioactivity, and clinical safety/tolerance were reported. Plasma, urine and fecal homogenates were analyzed for quantitation and identification of SR 46349B and metabolites.
Subjects were fasted overnight prior to the morning of ^14 C-SR 46349B administration. […]
Pools of plasma for each collection time were prepared by mixing equal amounts of plasma from all subjects. This made available enough plasma at each time point to quantitate metabolites. […] Due to low amounts of radioactivity in plasma, five concentrated extracts from the same time point were combined. […] Pools for each collection time were analyzed in triplicate.
as §1, with “Conn.). […]” for “Conn.).”

[3] = Human pharmacokinetics: plasma concentration of SR 46349 (HPLC-UV) after single oral dose of 14C-SR 46349B; type: in vivo
Method: as §2
(§3) Subjects were fasted overnight prior to the morning of ^14 C-SR 46349B administration. All subjects received a single oral 30 mg dose of ^14 C-SR 46349B (corresponding to 35.4 mg of the […] compound) in a single gelatin capsule. The capsule was dropped directly in the mouth and swallowed with 150 mL of tap water at about 8:00 AM. Ingestion of the capsule was verified by inspection of the oral cavity of each subject.
(§4) Blood samples were obtained at 0, 0.5, 1, 1.5, 2, 2.5, 3, 4, 6, 8, 10, 12, 16, 24, 36, 48, 72, 96, 120, 144, 168, 192, 216, 240, 264, 288 and 312 hr after dosing. For each sample, approximately 7 mL of blood (22 mL at 2, 3, 4, 8, 12, 24 and 48 hrs after dosing) was drawn into polypropylene collection tubes containing lithium heparin (as an anticoagulant). Following the removal of 1 mL of blood for radiocarbon analysis, samples were centrifuged (within 30 min) at 2000-3000×g for 10 min and the plasma transferred into polypropylene transport tubes. All samples were stored frozen (≤-18° C.) until analysis.
The concentration of SR 46349 in plasma samples was determined using a validated HPLC method with UV detection at 320 nm. […] The samples were dried at room temperature and resuspended in 0.15 mL of mobile phase and 0.05 mL was analyzed. […]
Unknown concentrations of SR 46349 were quantified by reference to a 1/y^2 weighted regression analysis of the peak-area ratio (SR 46349/internal standard) versus concentration of the calibration curve standards. […]
Model-independent pharmacokinetic parameters for plasma concentrations of SR 46349 were calculated for each subject. The maximum observed plasma concentration (Cmax) of SR 46349 and its corresponding time (tmax) were determined by visual inspection of individual concentration-time profiles. Half-life (t 1/2) was calculated from the ratio of ln(2)/λZ, where λZ is the regressed slope of the terminal phase. The area under the plasma concentration of SR 46349-versus-time-curves (AUC(0-t)) was calculated using the trapezoidal rule. AUC was calculated for the sum of AUC(0-t) and Cp(1)/λZ wherein Cp(1) is the last measurable concentration time point. […]

[4] = Urinary excretion and urinary metabolite profiling in humans; type: in vivo, human; conditions: up to 336 hr post-dose, % of administered dose
Method: as §2
(§5) Subjects were fasted overnight prior to the morning of ^14 C-SR 46349B administration. All subjects received a single oral 30 mg dose of ^14 C-SR 46349B (corresponding to 35.4 mg of the unsalified compound) in a single gelatin capsule. […]
(§6) Aliquots of plasma and urine samples were added directly to Ready-Safe scintillant (9 mL), hand shaken for a few seconds and left for at least 2 hours prior to counting. […] Radioactivity assays were performed with a Packard Instruments Tri-Carb, Model 1600TR Liquid Scintillation System. […]
A representative pool of urine was prepared for each subject by mixing aliquots from each collection interval in proportion to the percent of radioactivity present in each collection interval. Pools were prepared to represent approximately 95% of total collected urinary radioactivity. […]

[5] = Fecal excretion and fecal metabolite profiling in humans; type: in vivo, human; conditions: up to 276 hr post-dose, % of administered dose
Method: as §2, §5, §6
A representative pool of fecal homogenate was prepared for each subject by mixing aliquots from each collection interval in proportion to the percent of radioactivity present in each collection interval. Pools were prepared to represent approximately 95% of total collected fecal radioactivity. […]

[6] = Human pharmacokinetics: plasma radioactivity after single oral dose of 14C-SR 46349B; type: in vivo
Method: as §2, §3, §4
Aliquots of plasma and urine samples were added directly to Ready-Safe scintillant (9 mL), hand shaken for a few seconds and left for at least 2 hours prior to counting. Aliquots of fecal homogenates were weighed in a Combusto-Cone fitted with a CombustoPad. The samples were allowed to dry overnight before combustion in a Packard Sample Oxidizer, Model 307 (Meriden, Conn.). Carbo-Sorb and Permafluor E^+ were used as scintillants (10 mL). Samples mixed with scintillant were left for at least 4 hours prior to counting. Radioactivity assays were performed with a Packard Instruments Tri-Carb, Model 1600TR Liquid Scintillation System. The LOQ was set at 12 cpm above background.

## C[N+](C)([O-])CCON=C(/C=C/c1ccc(O)cc1)c1ccccc1F [H22 & H23]
[1]
  percentage of excreted radioactivity: approximately 23%

## CN(C)CCON=C(/C=C/c1ccc(O)cc1)c1ccccc1F [SR 46349B, Trans 1-N,N-dimethylaminoethoxyimino 1-(2-fluorophenyl)-3-(4-hydroxyphenyl)2-propene hemifumarate]
5-HT2
  5-HT2 antagonist activity: potent 5-HT2 antagonist
[2]
  plasma concentration compared with any single metabolite: higher than any single metabolite, except at the 48 hr time point

## CN(C)CCON=C(/C=C/c1ccc(O)cc1)c1ccccc1F [SR 46349]
[3]; human, po, 30 mg, single oral 30 mg, mean (±SD), read-out: terminal elimination half-life of SR 46349 (converted)
  half-life: ~23 h
[3]; human, single oral 30 mg 14C-SR 46349B, healthy male volunteers, capsule, fasted, read-out: Cmax of SR 46349 in plasma, mean (±SD)
  Cmax: 50 ng/mL
[3]; human, single oral 30 mg, read-out: mean plasma AUC for SR 46349 (±SD), as restated in the discussion
  AUC: 1200 ng·h/mL
[3]; single oral 30 mg, mean (±SD)
  terminal elimination half-life of SR 46349: 22.9 (±7.3) hr
[1]; result in words, human
  extent and pathways of metabolism: extensively metabolized; also recorded: N-oxidation, N-demethylation, sulfation and glucuronidation; also recorded: oxidation of SR 46349 (N-oxidation and N-demethylation) appears to be the major mechanism of metabolic clearance
[1]
  percentage of excreted radioactivity: approximately 6%
[2]
  plasma concentration compared with any single metabolite: always higher than any individual metabolite

## CN(C)CCO/N=[14C](/C=C/c1ccc(O)cc1)c1ccccc1F [^14 C-SR 46349B]
[4]
  cumulative urinary excretion of radioactivity, mean (±SD): 70.3 (±4.6) %
[4]; range over subjects
  cumulative urinary excretion of radioactivity, range: 63.1 to 77.1%
[5]
  cumulative fecal excretion of radioactivity, mean (±SD): 21.6 (±3.5) %
[5]; range over subjects
  cumulative fecal excretion of radioactivity, range: 16.4 to 26.5%
[6]; at similar tmax values, radioactivity / SR 46349
  maximal plasma concentrations of radioactivity relative to plasma concentrations of SR 46349: approximately 3 times
[6]; radioactivity / SR 46349
  AUC of plasma radioactivity relative to mean plasma AUC for SR 46349: approximately 11 times
[6]; single oral 30 mg 14C-SR 46349B, total radioactivity
  Cmax of plasma radioactivity, mean (±SD): 0.16 (±0.02) mg eq/L
[6]; single oral 30 mg, total radioactivity
  AUC of plasma radioactivity, mean (±SD): 13.7 (±2. 1) mg eq.circle-solid.hr/L
